According to patent US4138590A, “Prostaglandin derivatives” (American Home Products Corporation, priority 1977, dated 1979):

Legend:
Human blood platelets = assay: Blood Platelet Aggregation (ADP induced, modification of Born and Cross); assay type: cell-based; settings: human PRP, ADP 2-4 μM
Description: Reference: Modification of Born, G.V.R., and Cross, M. J., J. Physiol., 168, 178-195 (1963).
Test Object: Human blood platelets.
Procedure: Platelet aggregation is the initial step in thrombus formation and it is considered that compounds which prevent aggregation or reduce platelet adhesiveness may inhibit the initiation of the arteriosclerotic process. The effect of drugs on aggregation is measured in platelet rich plasma (PRP) containing adenosine diphosphate (ADP) which markedly increases aggregation in vitro and may be a physiological agent for doing so in vivo.
Human blood is collected from fasted normal blood donors in siliconized 50 ml. Vacutainers that contain 3.8% sodium citrate. Centrifugation at 500 g. for 3 minutes at 5° C. separates the red blood cells from the PRP. The supernatant PRP is pipetted off and the remainder is centrifuged at 1000 g. for 10 minutes at 25° C. to obtain platelet poor plasma for standarization of the automated Payton aggregometer. In the running of the platelet aggregation test a cell containing 1.0 ml. of PRP is stirred at 1,100 rpm and the test compound is added in 0.2 ml. of buffered saline to give an initial concentration of 5 × 10^-3 M, or 5 × 10^-4 M. After 3 minutes, a concentration of ADP predetermined to yield marked platelet aggregation (2 to 4 μM) is added in 0.1 ml. of buffered saline. The curve of light transmission at 610 mμ is followed for 6 minutes. Compounds found to be active at the initial concentration are run at lower concentrations.
Standard Compound: 2-4 μM ADP-Reference Compound.

[1] = tested on: bronchoconstricting effects of a standard dose of acetylcholine; assay: Evaluation of Bronchodilator Activity (aerosol inhalation, method of Rosenthale et al.); assay type: in vivo; settings: guinea pig, acetylcholine i.v. dose producing ca. 30% bronchoconstriction
Text: In using the compounds of the invention to produce bronchodilating effects in warm-blooded animals, they may be administered in a variety of dosage forms: oral, injectable, and aerosol inhalation. Aerosol inhalation is a preferred method because of its rapid onset of action, great potency, and specificity of action. The particular dosage to obtain the bronchodilating effect will vary with the particular compound employed, the particular animal involved, and the degree of bronchodilation desired. In the guinea pig, by aerosol inhalation, the dose to produce bronchodilation is from about 0.15 micrograms to about 25 micrograms, and preferably from about 0.15 to about 15 micrograms. The bronchodilation produced upon aerosol inhalation can be observed by the method of Rosenthale et al., J. Pharmacol. Exp. Ther., 178, 541 (1971). Using this procedure the following results were obtained:
*The dose (i.v.) of acetylcholine which produces a ca. 30%

Question: How did the inhibition at 18 µM (Human blood platelets; concentration 1.8 × 10^-5 M) turn out when CCCCC[C@H](O)/C=C/[C@H]1C(=O)C=C(c2ccccc2)[C@@H]1C/C=C\CCCC(=O)O [7-{2β-[(3S)-3-Hydroxy-trans-1-Octenyl]-3-Oxo-5-Phenyl-4-Cyclopenten-1α-yl}-cis-5-Heptenoic Acid] was run?
Answer: 22%

Question: How did the inhibition at 22 µM (Human blood platelets; concentration 2.2 × 10^-5 M) turn out when C#CC1=CC(=O)[C@H](/C=C/[C@@H](O)CCCCC)[C@H]1C/C=C\CCCC(=O)O [7-{5β-[(3S)-3-Hydroxy-trans-1-Octenyl]-2-Ethynyl-4-Oxo-2-Cyclopenten-1α-yl}-cis-5-Heptenoic Acid] was run?
Answer: 36%

Question: With CCCCC[C@H](O)/C=C/[C@H]1C(=O)C=C(C)[C@@H]1C/C=C\CCCC(=O)O [7-{5β-[(3S)-3-Hydroxy-trans-1-Octenyl]-2-Methyl-4-Oxo-2-Cyclopenten-1α-yl}-cis-5-Heptenoic Acid] as the compound, how does the “% Inhibition of the Bronchoconstricting effects of a standard dose of acetylcholine” value ([1]; dose 1.5 μg) read?
Answer: 36%

Question: What about the “% Inhibition of the Bronchoconstricting effects of a standard dose of acetylcholine” value ([1]; dose 15 μg) of the same compound?
Answer: 78%

Question: And the inhibition at 0.0057 µM (Human blood platelets; concentration 5.7 × 10^-9 M)?
Answer: 56%
